Measured values published in PMC6284057, “Combined Antibacterial Effects of Goat Cathelicidins With Different Mechanisms of Action” (Frontiers in Microbiology, 2018).
In brackets after ≈: the same amount, converted by molar mass. Read-outs that look alike come from different tables or passages of the source.

Tests used:
[1] = test system: in vitro translation of EGFP, E. coli BL21 Star (DE3) cell lysate; assay: Cell-free protein expression assay (EGFP); type: biochemical, Escherichia coli; details: EGFP fluorescence, 1.5 h, 30°C
Experimental: The cell lysate used for translation inhibition assay was prepared using the E. coli BL21 Star (DE3) cell culture grown at 30°C in the 2x YTPG liquid medium (1% yeast extract, 1.6% tryptone, 0.5% NaCl, 22 mM NaH2PO4, 40 mM Na2HPO4, 0.1 M glucose). The chromosome of DE3 strains contains a gene encoding T7 RNA polymerase under control of the lacUV5 promoter. The bacterial culture was grown to OD600 0.8–1.0, then T7 RNA polymerase gene was induced by adding 0.2 mM IPTG. Bacteria were harvested at OD600 5.0–6.0 by centrifugation (3000 g, 30 min, 4°C). The bacterial pellet was washed three times by suspending it in four volumes of wash buffer (10 mM Tris-acetate buffer, pH 8.2, 60 mM potassium glutamate, 14 mM magnesium acetate, 1 mM DTT), then resuspended in one volume of the same buffer (1 ml per 1 g of wet cell mass) and disrupted by sonication at 5–15°C. The total cell lysate was centrifuged at 15000 g (30 min, 4°C). The supernatant was split into aliquots and stored at -70°C.
In order to investigate the effect of AMPs on the translation process, the peptides were added to a cell-free protein synthesis (CFPS) reaction mix with a plasmid encoding EGFP variant (F64L, S65T, Q80R, F99S, M153T, and V163A) under a control of the T7 promoter. The reaction mix consisted of the following components: 1.2 mM ATP, 0.8 mM UTP, 0.8 mM GTP, 0.8 mM CTP, 2 mM of each of 20 proteinogenic amino acids, 1.5 mM spermidine, 1 mM putrescine dihydrochloride, 0.06647 mM calcium folinate, 170 ng/ml tRNA from the E. coli MRE 600 strain, 0.33 mM NAD, 120 mM HEPES-KOH (pH 8.0), 10 mM ammonium glutamate, 175 mM potassium glutamate, 60 mM glucose, 15 mM magnesium glutamate, 2% PEG 8000, 25% E. coli BL21 Star (DE3) cell lysate, 10 ng/μl plasmid DNA. The reaction volume was 50 μl. […] Fluorescence of the sample without inhibitor was set as the 100% value. […] Fluorescence of the synthesized EGFP was measured with the microplate reader AF2200 (λExc = 488 nm, λEm = 510 nm). […] IC50 values were determined by interpolation from non-linear regression curves using the GraphPad Prism 6.0 software.

[2] = test system: P. mirabilis (XDR CI 3423); assay: microbe, parasite or virus in culture; type: cell-based, Proteus mirabilis; details: Proteus mirabilis; Table S2, XDR clinical isolate; NaCl content of medium not stated; read-out: Minimum inhibitory concentration
Experimental: (§1) Antimicrobial assay was performed as described previously ([Panteleev et al., 2017b]). Briefly, mid-log phase bacterial test cultures were diluted with the 2× Mueller-Hinton broth (MH, Sigma) supplemented with 1.8% NaCl or without it so that to reach a final cell concentration of 10^6 CFU/ml. 50 μl aliquots of the obtained bacterial suspension were added to 50 μl of the peptide solutions serially diluted with 0.1% water solution of bovine serum albumin (BSA) in 96-well flat-bottom polystyrene microplates (Eppendorf #0030730011). After incubation at 37°C and 900 rpm for 24 h the minimum inhibitory concentrations (MIC) were determined as the lowest peptide concentrations that prevented growth of a test microorganism observed as visible turbidity. The results were expressed as the median values determined on the basis of at least three independent experiments performed in triplicate.

E. cloacae (XDR CI 4172) = assay: microbe, parasite or virus in culture; type: cell-based, Enterobacter cloacae; details: Enterobacter cloacae; Table S2, XDR clinical isolate; NaCl content of medium not stated; read-out: Minimum inhibitory concentration
Experimental: as §1

E. coli (XDR CI 1057) = assay: microbe, parasite or virus in culture; type: cell-based, Escherichia coli; details: Escherichia coli, read-out: Minimum inhibitory concentration
Experimental: as §1

[3] = test system: P. aeruginosa (XDR CI 1049); assay: microbe, parasite or virus in culture; type: cell-based, Pseudomonas aeruginosa; details: Pseudomonas aeruginosa; Table S2, XDR clinical isolate; NaCl content of medium not stated; read-out: Minimum inhibitory concentration
Experimental: as §1

[4] = test system: A. baumannii (XDR CI 2675); assay: microbe, parasite or virus in culture; type: cell-based, Acinetobacter baumannii; details: read-out: Minimum inhibitory concentration
Experimental: as §1

[5] = test system: K. pneumoniae (XDR CI 1056); assay: microbe, parasite or virus in culture; type: cell-based, Klebsiella pneumoniae; details: Klebsiella pneumoniae; Table S2, XDR clinical isolate; NaCl content of medium not stated; read-out: Minimum inhibitory concentration
Experimental: as §1

M. luteus B-1314 = type: cell-based, Micrococcus luteus; details: Mueller-Hinton broth, 10^6 CFU/ml, peptide diluted in 0.1% BSA, 37°C, 24 h, median of at least 3 experiments in triplicate
Experimental: as §1

S. aureus 209P = type: cell-based, Staphylococcus aureus; details: Mueller-Hinton broth, 10^6 CFU/ml, 0.1% BSA, 37°C, 24 h, median of at least 3 experiments
Experimental: as §1

K. pneumoniae (CI 287) = type: cell-based, Klebsiella pneumoniae; details: Mueller-Hinton broth, 10^6 CFU/ml, 0.1% BSA, 37°C, 24 h, median of at least 3 experiments
Experimental: as §1

P. aeruginosa PAO1 = type: cell-based, Pseudomonas aeruginosa; details: Mueller-Hinton broth, 10^6 CFU/ml, 0.1% BSA, 37°C, 24 h, median of at least 3 experiments
Experimental: as §1

E. coli C600 = type: cell-based, Escherichia coli; details: Mueller-Hinton broth, 10^6 CFU/ml, 0.1% BSA, 37°C, 24 h, median of at least 3 experiments
Experimental: as §1

E. coli ML-35p = type: cell-based, Escherichia coli; details: Mueller-Hinton broth, 10^6 CFU/ml, 0.1% BSA, 37°C, 24 h, median of at least 3 experiments
Experimental: as §1

B. subtilis B-886 = type: cell-based, Bacillus subtilis; details: Mueller-Hinton broth, 10^6 CFU/ml, 0.1% BSA, 37°C, 24 h, median of at least 3 experiments
Experimental: as §1

[6] = test system: all the cells tested (hRBC, HEF, HEK293T); assay: Hemolysis and cytotoxicity assay; type: cell-based, human; details: positive control
Experimental: Hemolytic activity of the peptides was tested against the fresh suspension of human red blood cells (hRBC) using the hemoglobin release assay as described previously ([Panteleev et al., 2016]). Three experiments were performed with the hRBC from blood samples obtained from independent donors. The obtained data were represented as average means with standard deviations. The cytotoxicity of the peptides against HEK293T (transformed human embryonic kidney cells) and HEF (human embryonic fibroblasts) cell lines was studied using the colorimetric 3-(4,5-dimethylthiazol-2-yl)-2,5-diphenyltetrazolium bromide (MTT) dye reduction assay according to ([Panteleev and Ovchinnikova, 2017]). Three independent experiments were performed for each peptide. Half maximal inhibitory concentration (IC50) values were estimated as described previously ([Kuzmin et al., 2018]).

In the case of KWCFRVCYRGICYRRCR [Tachyplesin-1], the “inhibition of protein biosynthesis, in words” value [1] is reported as “comparable level of inhibition”.
With `C[C@@H](O)[C@H]1C(=O)N2C(C(=O)O)=C(S[C@@H]3CN[C@H](C(=O)N(C)C)C3)[C@H](C)[C@H]12` [Meropenem, reference compound] the MIC [2] was greater than 128 µM, the MIC (E. cloacae (XDR CI 4172)) was 0.5 µM (≈ 0.192 µg/mL) and the MIC (E. coli (XDR CI 1057)) was 0.125 µM (≈ 0.0479 µg/mL). For the same compound, the MIC [3] was 64 µM (≈ 24.5 µg/mL), the MIC ([4]; Acinetobacter baumannii, Table S2, XDR clinical isolate, NaCl content of medium not stated) was 0.5 µM (≈ 0.192 µg/mL) and the MIC [5] was 16 µM (≈ 6.14 µg/mL).
In the case of `[H]/N=C(/N)N[C@H]1[C@H](O)[C@@H](O)[C@H](O[C@@H]2O[C@@H](C)[C@](O)(C=O)[C@H]2O[C@@H]2O[C@@H](CO)[C@H](O)[C@@H](O)[C@@H]2NC)[C@@H](N/C(N)=N\[H])[C@@H]1O` [streptomycin], the “concentration of full inhibition of in vitro protein synthesis” value [1] is reported as greater than 1 µM and the IC50 ([1]; at least 3 independent experiments, read-out: IC50, inhibition of in vitro protein synthesis) is reported as 200 nM.
`CC[C@H](C)[C@H](NC(=O)CN)C(=O)NCC(=O)N[C@@H](C)C(=O)N[C@H](C(=O)N[C@@H](CC(C)C)C(=O)N[C@@H](CCCCN)C(=O)N[C@H](C(=O)N[C@@H](CC(C)C)C(=O)N[C@H](C(=O)N[C@H](C(=O)NCC(=O)N[C@@H](CC(C)C)C(=O)N1CCC[C@H]1C(=O)N[C@@H](C)C(=O)N[C@@H](CC(C)C)C(=O)N[C@H](C(=O)N[C@@H](CO)C(=O)N[C@@H](Cc1c[nH]c2ccccc12)C(=O)N[C@H](C(=O)N[C@@H](CCCCN)C(=O)N[C@@H](CCCNC(=N)N)C(=O)N[C@@H](CCCCN)C(=O)N[C@@H](CCCNC(=N)N)C(=O)N[C@@H](CCC(N)=O)C(=O)N[C@@H](CCC(N)=O)C(N)=O)[C@@H](C)CC)[C@@H](C)CC)[C@@H](C)O)[C@@H](C)O)C(C)C)C(C)C` [Melittin, reference compound] gave a Minimum inhibitory concentration (M. luteus B-1314; 0.9% NaCl) of 0.5 µM (≈ 1.42 µg/mL), a Minimum inhibitory concentration (M. luteus B-1314; Without NaCl) of 0.25 µM (≈ 0.712 µg/mL) and a Minimum inhibitory concentration (S. aureus 209P; 0.9% NaCl) of 16 µM (≈ 45.5 µg/mL). It also gave a Minimum inhibitory concentration (S. aureus 209P; Without NaCl) of 2 µM (≈ 5.69 µg/mL), a Minimum inhibitory concentration (K. pneumoniae (CI 287); 0.9% NaCl) of 16 µM (≈ 45.5 µg/mL) and a Minimum inhibitory concentration (K. pneumoniae (CI 287); Without NaCl) of 4 µM (≈ 11.4 µg/mL). It also gave a Minimum inhibitory concentration (P. aeruginosa PAO1; 0.9% NaCl) of 8 µM (≈ 22.8 µg/mL), a Minimum inhibitory concentration (P. aeruginosa PAO1; Without NaCl) of 4 µM (≈ 11.4 µg/mL) and a Minimum inhibitory concentration (E. coli C600; 0.9% NaCl) of 8 µM (≈ 22.8 µg/mL). For the same compound, the Minimum inhibitory concentration (E. coli C600; Without NaCl) was 4 µM (≈ 11.4 µg/mL), the Minimum inhibitory concentration (E. coli ML-35p; 0.9% NaCl) was 8 µM (≈ 22.8 µg/mL) and the Minimum inhibitory concentration (E. coli ML-35p; Without NaCl) was 2 µM (≈ 5.69 µg/mL). The Minimum inhibitory concentration (B. subtilis B-886; 0.9% NaCl) was 0.5 µM (≈ 1.42 µg/mL), the Minimum inhibitory concentration (B. subtilis B-886; Without NaCl) was 0.5 µM (≈ 1.42 µg/mL) and the MIC ([4]; 0.9% NaCl, Mueller-Hinton broth, 10^6 CFU/ml, 0.1% BSA, 37°C, 24 h, median of at least 3 experiments) was 8 µM (≈ 22.8 µg/mL). The MIC ([4]; Without NaCl, Mueller-Hinton broth, 10^6 CFU/ml, 0.1% BSA, 37°C, 24 h, median of at least 3 experiments) was 2 µM (≈ 5.69 µg/mL) and the “concentrations that completely damaged all the cells tested” value [6] was less than 2500 nM.
